Assay [1] deals with C. albicans CAF2-1 strain. Nature of the assay: Anti-Candida activity, MIC measurement. The conditions noted are these: CAF21STRAIN, read-out: Anti-Candida Activity (minimum inhibitory concentration, MIC). The assay is classed as cell-based. In outline:
(§1)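 C. albicans CAF2-1 was grown 48 h at 30° C. in SDB and diluted in RPMI1640 to 1.2×10^3 cells/mL. Frozen A. fumigatus Tsukuba was diluted to 4.5×10^3 cells/mL. Compounds, two-fold serially diluted in DMSO from 2.5 mg/mL, were cultured aerobically with fungi for 42-48 h at 35° C.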

The subject of assay [2] is A. fumigatus Tsukuba strain. Nature of the assay: Anti-Aspergillus activity, MIC measurement. The class given is cell-based. The following applies: RPMI1640, 42-48 hours at 35° C., visual inspection, read-out: Anti-Aspergillus Activity (minimum inhibitory concentration, MIC). In outline:
as §1

Setting [3] is: C. albicans CAF2-1, RPMI1640, 42-48 hours at 35° C., visual inspection.

≈ marks a conversion by molar mass, not a printed value. Where two headings read alike, the source gives them in different places. A value given as a limit tells only on which side of the number the result lay.

On to `c1ccc(COc2ccc(Cc3cc(-c4cccnc4)on3)cc2)nc1` [Example 203, 3-(3-(4-(Pyridin-2-ylmethoxy)-benzyl)-isoxazol-5-yl)-pyridine], for which the results for the MIC in assay [1] (setting [3]) and in assay [2] were 0.2 mg/L (≈ 0.582 µM) and 1.56 mg/L (≈ 4.54 µM), respectively.
Consider `Nc1ncccc1-c1cc(Cc2ccc(NCc3ccccc3)cc2)no1` [Example 68, 3-(3-(4-Benzylamino-benzyl)-isoxazol-5-yl)-pyridin-2-ylamine], for which the MIC worked out at 0.1 mg/L (≈ 0.281 µM) in assay [1] (setting [3]) and 0.39 mg/L (≈ 1.09 µM) in assay [2].
For `Nc1ccc(-c2cc(Cc3ccc(Oc4ccccn4)cc3)no2)c(N)n1` [Example 222, 3-(3-(4-(Pyridin-2-yloxy)-benzyl)-isoxazol-5-yl)-pyridin-2,6-diamine] the same measures were 0.39 mg/L (≈ 1.09 µM) and 0.39 mg/L (≈ 1.09 µM).
Taken in the same sequence, the figures for `Nc1ncccc1-c1cc(Cc2cccc(OCC3CC3)c2)no1` [Example 66, 3-(3-(3-Cyclopropylmethoxy-benzyl)-isoxazol-5-yl)-pyridin-2-ylamine] were 0.1 mg/L (≈ 0.311 µM) and 0.78 mg/L (≈ 2.43 µM).
For the molecule `Nc1ccc(-c2cc(Cc3ccc(OCc4ccc(F)c(F)c4)nc3)no2)c(N)n1` [Example 152, 3-(3-(6-(3,4-Difluoro-benzyloxy)-pyridin-3-ylmethyl)-isoxazol-5-yl)-pyridin-2,6-diamine], the MIC was 0.78 mg/L (≈ 1.91 µM) in assay [1] (setting [3]) and 0.39 mg/L (≈ 0.953 µM) in assay [2].
Take `C#CCOc1ccc(Cc2cc(-c3ccc(N)nc3N)on2)cc1` [Example 219, 3-(3-(4-Prop-2-ynyloxy-benzyl)-isoxazol-5-yl)-pyridine-2,6-diamine]: the MIC in assay [1] (setting [3]) and in assay [2] was 3.13 mg/L (≈ 9.77 µM) each time.
On to `Cc1nc(N)ccc1-c1cc(Cc2ccc(OCc3ccccc3)cc2)no1` [Example 188, 5-(3-(4-Benzyloxy-benzyl)-isoxazol-5-yl)-6-methyl-pyridin-2-ylamine], for which the MIC in assay [1] (setting [3]) came out at 1.56 mg/L (≈ 4.2 µM); in assay [2], 0.78 mg/L (≈ 2.1 µM).
Taken in the same sequence, the figures for `Nc1ccc(-c2cc(Cc3ccc(OCc4ccsc4)cc3)no2)c(N)n1` [Example 136, 3-(3-(4-(Thiophen-3-ylmethoxy)-benzyl)-isoxazol-5-yl)-pyridin-2,6-diamine] were 0.2 mg/L (≈ 0.528 µM) and 0.2 mg/L (≈ 0.528 µM).
Taken in the same sequence, the figures for `Cc1ccc(Cc2ccc(Cc3cc(-c4ccc(N)nc4N)on3)s2)cc1` [Example 156, 3-(3-(5-(4-Methyl-benzyl)-thiophen-2-ylmethyl)-isoxazol-5-yl)-pyridin-2,6-diamine] were 0.2 mg/L (≈ 0.531 µM) and 0.2 mg/L (≈ 0.531 µM).
On to `Nc1ncccc1-c1cc(Cc2ccc(OCc3ccccc3F)cc2)no1` [Example 5, 3-(3-(4-(2-Fluoro-benzyloxy)-benzyl)-isoxazol-5-yl)-pyridin-2-ylamine], for which the MIC in assay [1] (setting [3]) and in assay [2] was 0.39 mg/L (≈ 1.04 µM) throughout.
For the molecule `Nc1ncccc1-c1cc(Cc2ccc(OC3CCCCC3)cc2)no1` [Example 79, 3-(3-(4-Cyclohexyloxy-benzyl)-isoxazol-5-yl)-pyridin-2-ylamine], the MIC amounted to 1.56 mg/L (≈ 4.46 µM) in assay [1] (setting [3]) and 6.25 mg/L (≈ 17.9 µM) in assay [2].
For `Nc1nc(CO)ccc1-c1cc(Cc2ccc(OCc3ccccc3)cc2)no1` [Example 169] the same measures were 0.39 mg/L (≈ 1.01 µM) and 0.39 mg/L (≈ 1.01 µM).
Taken in the same sequence, the figures for `Nc1ncccc1-c1cc(Cc2ccc(OCc3ccsc3)cc2)no1` [Example 77, 3-(3-(4-(Thiophen-3-ylmethoxy)-benzyl)-isoxazol-5-yl)-pyridin-2-ylamine] were 0.2 mg/L (≈ 0.55 µM) and 0.39 mg/L (≈ 1.07 µM).
In the case of `Cc1cccc(COc2ccc(Cc3cc(-c4cccnc4N)on3)cc2)n1` [Example 10, 3-(3-(4-(6-Methyl-pyridin-2-ylmethoxy)-benzyl)-isoxazol-5-yl)-pyridin-2-ylamine], the MIC is 0.39 mg/L (≈ 1.05 µM) in assay [1] (setting [3]) and 0.78 mg/L (≈ 2.09 µM) in assay [2].
Taken in the same sequence, the figures for `Cc1ccc(Oc2ccc(Cc3cc(-c4ccc(N)nc4N)on3)s2)cc1` [Example 106, 3-(3-(5-p-Tolyloxy-thiophen-2-ylmethyl)-isoxazol-5-yl)-pyridin-2,6-diamine] were 0.78 mg/L (≈ 2.06 µM) and 0.2 mg/L (≈ 0.528 µM).
Taken in the same sequence, the figures for `Nc1ncccc1-c1cnn(Cc2ccc(COCC3CC3)cc2)c1` [Example 195, 3-(1-(4-Cyclopropylmethoxymethyl-benzyl)-1H-pyrazol-4-yl)-pyridin-2-ylamine] were 0.39 mg/L (≈ 1.17 µM) and 0.78 mg/L (≈ 2.33 µM).
For `Nc1ccc(-c2cc(Cc3ccc(Cc4ccccc4)nc3)no2)c(N)n1` [Example 223, 3-(3-(6-Benzyl-pyridin-3-ylmethyl)-isoxazol-5-yl)-pyridin-2,6-diamine] the same measures were 0.39 mg/L (≈ 1.09 µM) and 0.39 mg/L (≈ 1.09 µM).
In the case of `Cc1ccc(Oc2ccc(Cc3cc(-c4cccnc4N)on3)s2)cc1` [Example 48, 3-(3-(5-p-Tolyloxy-thiophen-2-ylmethyl)-isoxazol-5-yl)-pyridin-2-ylamine], the MIC in assay [1] (setting [3]) was found to be 0.39 mg/L (≈ 1.07 µM); in assay [2], 0.2 mg/L (≈ 0.55 µM).
For the molecule `Nc1ncccc1-c1cc(Cc2ccc(SCc3ccccc3)cc2)no1` [Example 205, 3-(3-(4-Benzylsulfanyl-benzyl)-isoxazol-5-yl)-pyridin-2-ylamine], the MIC in assay [1] (setting [3]) is 0.39 mg/L (≈ 1.04 µM); in assay [2] it was 0.78 mg/L (≈ 2.09 µM).
Taken in the same sequence, the figures for `Nc1ccc(-c2cc(Cc3ccc(OCc4ccccn4)cc3)no2)cn1` [Example 177, 5-(3-(4-(Pyridin-2-ylmethoxy)-benzyl)-isoxazol-5-yl)-pyridin-2-ylamine] were 0.39 mg/L (≈ 1.09 µM) and 0.78 mg/L (≈ 2.18 µM).
For `Nc1ncccc1-c1cc(Cc2ccc(Sc3ccccc3)nc2)no1` [Example 97, 3-(3-(6-Phenylsulfanyl-pyridin-3-ylmethyl)-isoxazol-5-yl)-pyridin-2-ylamine] the same measures were 0.39 mg/L (≈ 1.08 µM) and 0.2 mg/L (≈ 0.555 µM).
For `Nc1ncccc1-c1cc(Cc2ccc(Oc3ccccc3)nc2)no1` [Example 53, 3-(3-(6-Phenoxy-pyridin-3-ylmethyl)-isoxazol-5-yl)-pyridin-2-ylamine] the same measures were 0.2 mg/L (≈ 0.581 µM) and 0.2 mg/L (≈ 0.581 µM).
With `Nc1ccc(-c2cnn(Cc3ccc(OCc4ccccn4)cc3)c2)c(N)n1` [Example 199], the MIC in assay [1] (setting [3]) worked out at 3.13 mg/L (≈ 8.4 µM); in assay [2], 6.25 mg/L (≈ 16.8 µM).
For `Nc1nc(NCCO)ccc1-c1cc(Cc2ccc(OCc3ccccc3)nc2)no1` [Example 225, 2-(6-Amino-5-(3-(6-benzyloxy-pyridin-3-ylmethyl)-isoxazol-5-yl)-pyridin-2-ylamino)-ethanol] the same measures were 0.78 mg/L (≈ 1.87 µM) and 3.13 mg/L (≈ 7.5 µM).
Take `Nc1ccc(-c2cc(Cc3ccc(OC4CCCCC4)cc3)no2)c(N)n1` [Example 139, 3-(3-(4-Cyclohexyloxy-benzyl)-isoxazol-5-yl)-pyridin-2,6-diamine]: the values for the MIC in assay [1] (setting [3]) and in assay [2] were 1.56 mg/L (≈ 4.28 µM) and greater than 25 mg/L, respectively.
For `Nc1ccc(-c2cc(Cc3ccc(OCc4ccc(F)cc4F)nc3)no2)c(N)n1` [Example 153, 3-(3-(6-(2,4-Difluoro-benzyloxy)-pyridin-3-ylmethyl)-isoxazol-5-yl)-pyridin-2,6-diamine] the same measures were 1.56 mg/L (≈ 3.81 µM) and 0.39 mg/L (≈ 0.953 µM).
Regarding `Nc1ccc(-c2cc(Cc3ccc(COc4ncccc4F)cc3)no2)c(N)n1` [Example 149, 3-(3-(4-(3-Fluoro-pyridin-2-yloxymethyl)-benzyl)-isoxazol-5-yl)-pyridin-2,6-diamine], the MIC in assay [1] (setting [3]) came out at 6.25 mg/L (≈ 16 µM); in assay [2], 1.56 mg/L (≈ 3.99 µM).
For `Nc1ccc(-c2cc(Cc3ccc(OCc4ccccn4)c(F)c3)no2)c(N)n1` [Example 150, 3-(3-(3-Fluoro-4-(pyridin-2-ylmethoxy)-benzyl)-isoxazol-5-yl)-pyridin-2,6-diamine] the same measures were 0.39 mg/L (≈ 0.996 µM) and 0.78 mg/L (≈ 1.99 µM).
Taken in the same sequence, the figures for `COc1cccc(COc2ccc(Cc3cc(-c4cccnc4N)on3)cc2)c1` [Example 98, 3-(3-(4-(3-Methoxy-benzyloxy)-benzyl)-isoxazol-5-yl)-pyridin-2-ylamine] were 0.39 mg/L (≈ 1.01 µM) and 0.39 mg/L (≈ 1.01 µM).
In the case of `Nc1ccc(-c2cc(Cc3ccc(OCc4ccc(F)cc4)cc3)no2)c(N)n1` [Example 20, 3-(3-(4-(4-Fluoro-benzyloxy)-benzyl)-isoxazol-5-yl)-pyridin-2,6-diamine], the MIC in assay [1] (setting [3]) amounted to 0.78 mg/L (≈ 2 µM); in assay [2] it was 0.2 mg/L (≈ 0.512 µM).
Consider `Nc1ncccc1-c1cc(Cc2ccc(COc3cc(F)ccn3)cc2)no1` [Example 59, 3-(3-(4-(4-Fluoro-pyridin-2-yloxymethyl)-benzyl)-isoxazol-5-yl)-pyridin-2-ylamine], for which the MIC in assay [1] (setting [3]) and in assay [2] was 0.39 mg/L (≈ 1.04 µM) throughout.
Regarding `Nc1ccc(-c2cc(Cc3ccc(Oc4ccccc4F)nc3)no2)c(N)n1` [Example 134, 3-(3-(6-(2-Fluoro-phenoxy)-pyridin-3-ylmethyl)-isoxazol-5-yl)-pyridin-2,6-diamine], the MIC in assay [1] (setting [3]) was 0.39 mg/L (≈ 1.03 µM); in assay [2], 0.78 mg/L (≈ 2.07 µM).
For `Nc1ccc(-c2cnn(Cc3ccc(OCc4ccccc4)nc3)c2)c(N)n1` [Example 198, 3-(1-(6-Benzyloxy-pyridin-3-ylmethyl)-1H-pyrazol-4-yl)-pyridin-2,6-diamine], the MIC in assay [1] (setting [3]) was 0.78 mg/L (≈ 2.09 µM); in assay [2], 1.56 mg/L (≈ 4.19 µM).
As to `COc1cccc(COc2ccc(Cc3cc(-c4ccc(N)nc4N)on3)cc2)n1` [Example 163, 3-(3-(4-(6-Methoxy-pyridin-2-ylmethoxy)-benzyl)-isoxazol-5-yl)-pyridin-2,6-diamine], the MIC is 3.13 mg/L (≈ 7.76 µM) in assay [1] (setting [3]) and 1.56 mg/L (≈ 3.87 µM) in assay [2].
For `Cc1ccc(OCc2ccc(Cc3cc(-c4ccc(N)nc4N)on3)cc2)nc1` [Example 103, 3-(3-(4-(5-Methyl-pyridin-2-yloxymethyl)-benzyl)-isoxazol-5-yl)-pyridin-2,6-diamine] the same measures were 1.56 mg/L (≈ 4.03 µM) and 0.78 mg/L (≈ 2.01 µM).
For `CC(C)=CCOc1ccc(Cc2cc(-c3ccc(N)nc3N)on2)cc1` [Example 218, 3-(3-(4-(3-Methyl-2-but-2-enyloxy)-benzyl)-isoxazol-5-yl)-pyridin-2,6-diamine], the MIC came out at 0.2 mg/L (≈ 0.571 µM) in assay [1] and 0.1 mg/L (≈ 0.285 µM) in assay [2].

These data come from US8158657B2, “Heterocycles substituted pyridine derivatives and antifungal agent containing thereof” (Eisai R&D Management Co., Ltd., priority 2005, dated 2012).
